In PMC10418725, “Trypsin from Pyloric Caeca of Asian Seabass: Purification, Characterization, and Its Use in the Hydrolysis of Acid-Soluble Collagen” (Foods, 2023):

Test system: purified trypsin (PT) from the pyloric caeca of Asian seabass
Test: 4-nitroaniline release, A410; Lineweaver-Burk
Assay type: biochemical, Lates calcarifer
Conditions: 30 °C, optimal pH (8.5) per Table 3 footnote; free enzyme; b65 text prints 0.0078 (no unit)

A Km of 78 µM was found for `NC(N)=NCCCC(NC(=O)c1ccccc1)C(=O)Nc1ccc([N+](=O)[O-])cc1` (stereo not shown) [BAPNA] in this work.
